1 sequence from patent US9303069B2, “Peptides for treating cancer” (University of Mississippi Medical Center, priority 2014, dated 2016) can be followed below.

Common to all, as to format: cell-based, human
The subject of one experiment is SKOV3 cells. Particulars: 48 h. As to the method: (§1) Thus, a peptide (hereafter IRIS peptide) composed of a cell/nucleus penetrating signal (FIG. 26) fused to BRCA1-IRIS intron 11 (FIG. 26) was synthesized. Equal numbers of HOSE, HOSE/IRIS, SKOV3, OVCAR3, OVCAR420 and OV-90 cells were grown in the presence of increasing concentrations of IRIS peptide for 48 hours.
To investigate the contribution of ErbB2 and TrkB to BRCA1-IRIS-induced cisplatin resistance, equal numbers of SKOV3 cells were either depleted from BRCA1-IRIS, ErbB2 or TrkB using specific siRNAs for 48 hours before they were (i) exposed to increasing concentrations of cisplatin for another 24 hours or (ii) exposed to IRIS peptide, ErbB2 inhibitor (CP-724714), TrkB inhibitor (K252a) or both for 24 hours, before they were exposed to increasing concentrations of cisplatin for another 24 hours.
(§2) Cell viability measurement. Cell viability under different experimental conditions was determined using the MTS assay […]. Briefly, SKOV3, OVACAR3, HOSE and HOSE/IRIS cells (2.5×10^4 cells per well) were seeded in 96 well plates and incubated overnight at 37° C. in 10% humidified CO2 atmosphere in varying concentrations of IRIS peptide, or inhibitors of ErbB2 (CP-724714), EGFR (Erlotinib), TrkB (K252a), JNK (SP600125), p38 (SB203580), ERK (PD98059) and PI3′K/AKT (LY294002) inhibitors for 24 hours at 37° C. Cell Titer 96® Aqueous (Promega, Madison, Wis., USA) was used to measure viability following manufactures instructions. Cell viability (%) was expressed as a ratio to control cells×100. Growth inhibition was also determined by manually counting cells in five different microscopic fields. Change in cell numbers (fold) was expressed as a ratio to control cells×100. All experiments were done in at least triplicates, three different times. * is p≦0.05, ** is p≦0.001 and *** is p≦0.0001.
Transfections of siRNA. siRNAs for human ErbB2 and TrkB were purchased from Ambion and Santa Cruz Biotechnology, USA. Custom synthesized siRNA against BRCA1 IRIS was used. siRNA against luciferase gene was used as the negative control. Sub-confluent cells were transfected in 6- or 96-well plates with ErbB2 (100 nM), TrkB (100 nM), BRCA1 IRIS (200 nM) or control siRNA using Oligofectamine™ reagent (GibcoBRL Inc, USA) following the instructions of the manufacturer. Protein expression was tested by Western blot after 72 hours of siRNA transfection. Cell viability was evaluated by MTS or by manual counting after 72 hours of siRNA exposure alone or in combination with cisplatin exposure (for an additional 24 hours).

For another experiment, the system named is OV-90 cells. Particulars: 48 h. How it is done: as §1, §2
For a further experiment, the system named is OVCAR3 cells. Particulars: 48 h. How it is done:
as §1, §2

Another experiment has as its system HOSE/IRIS cells. Particulars: 48 h. As to the method:
as §1, §2

A further experiment has as its system OVCAR420 cells. The settings on record: 48 h. As to the method: as §1, §2
Another experiment relates to HOSE cells. The settings on record: 48 h. As to the method:
as §1, §2

The test system of experiment [1] is HOSE, HOSE/IRIS, SKOV3, OVCAR3, OVCAR420 and OV-90 cells. The experiment in a line: Survival of ovarian cell lines after siRNA transfection followed by IRIS peptide. The settings on record: then increasing concentrations of IRIS peptide 24 hours. As to the method:
To establish the specificity of this peptide further, it was assumed that it would not affect cells already depleted from BRCA1-IRIS. To do that HOSE, HOSE/IRIS, SKOV3, OVCAR3, OVAC420 and OV-90 cells were first transfected with luciferase (as control, hereafter siLuc) or BRCA1-IRIS (hereafter siIRIS) specific siRNAs for 48 hours before they were exposed to increasing concentrations of IRIS peptide for another 24 hours.
Cell viability measurement. Cell viability under different experimental conditions was determined using the MTS assay or cell. […] Cell viability (%) was expressed as a ratio to control cells×100. Growth inhibition was also determined by manually counting cells in five different microscopic fields. Change in cell numbers (fold) was expressed as a ratio to control cells×100. […]
Transfections of siRNA. siRNAs for human ErbB2 and TrkB were purchased from Ambion and Santa Cruz Biotechnology, USA. […] Cell viability was evaluated by MTS or by manual counting after 72 hours of siRNA exposure alone or in combination with cisplatin exposure (for an additional 24 hours).

Another experiment deals with caspase 3/7. The experiment in a line: Cleaved / activated caspase 3/7 in MDA-MB-231 and MDA-MB-468 cells. The settings on record: increasing concentrations of IRIS peptide. How it is done:
To assess whether BRCA1-IRIS inactivation can sensitize TNBC cells to lower paclitaxel concentrations, MDA-MB-231 and MDA-MB-468 were exposed to 1 μM of paclitaxel 0, 1, 2, 5 and 10 μM of IRIS peptide for 24 hours. […] Perhaps more importantly, in the presence of only 1 μM of paclitaxel, the IC50 of IRIS peptide was reduced to <2 μM in both cell lines (dark color lines in FIG. 85).

The subject of a further experiment is HOSE and HOSE/IRIS cells. Put plainly: Survival of HOSE versus HOSE/IRIS cells. Particulars: pre-treatment with 5 μM of IRIS peptide. As to the method: To test that, HOSE or HOSE/IRIS cells were incubated for 24 hours with 10 μM of ErbB2 (CP-724714), EGFR (Erlotinib), TrkB (K252a), JNK (SP600125), p38 (SB203580), ERK (PD98059) and PI3′K/AKT (LY294002) inhibitors. […] Taken together, BRCA1-IRIS overexpression activates AKT and ERK, thereby inactivating FOXO3a and promoting Cyclin D1, survivin, Bcl-2 and NF-κB expression and suppressing p27 expression (FIG. 15).
HOSE cells overexpressing IRIS show a higher degree of resistance to cisplatin than HOSE cells (compare blue to black line in FIG. 30).
as §2

The test system of experiment [2] is HME/IRIS, MDA-MB-231 and MDA-MB-468 cells. Put plainly: Acini formation in matrigel-coated wells, breast cell lines. The settings on record: day 10; peptide added every third day. An excerpt: Next, it was considered whether BRCA1-IRIS depletion or inactivation could impact the aggressive behavior in breast cancer cell lines. BRCA1-IRIS silenced HME, HME/IRIS, MDA-MB-231 and MDA-MB-468 cells were layered on matrigel-coated wells. Moreover, parental cell lines were layered on the matrigel and grown in the presence of scrambled or IRIS peptide (added every third day). […] On day 10, HME acini became slightly bigger but remained round (FIG. 89, 1st column and FIG. 90). Acini formed by HME/IRIS, MDA-MB-231 and MDA-MB-468 were large/non-round on day 10 (FIG. 89, 1st column and FIGS. 90 and 91). BRCA1-IRIS depletion (FIG. 89, 2nd column and FIG. 91) or inactivation (FIG. 89, 3rd column and Suppl. FIG. 91) reverted this phenotype back to near normal “small/round” acini. Quantitatively, BRCA1-IRIS overexpression led to >3-fold increase in HME cells aggressiveness, and its depletion or inactivation reduced that phenotype in tumor cells by >3 fold (FIG. 90 and FIG. 91).

The term IC50 denotes the concentration at which inhibition is half-maximal.

“Also recorded” adds a separate entry of the source. Ends that are not written are not given here.

For the sequence “RRIRPRPPRLPRPRPRPLPFPRPGIGTRFLCLPQSIYRSELNVYAFGEHILQISKYS [IRIS peptide]”, the IC50 was about 10 µM in the experiment on SKOV3 cells; about 5 µM with OV-90 cells; about 10 µM in the experiment with OVCAR3 cells; about 10 µM in the experiment on HOSE/IRIS cells; about 1 µM with OVCAR420 cells; about 1 µM with HOSE cells. Moreover, in experiment [1] (siIRIS 48 hours), the “effect of IRIS peptide on survival of BRCA1-IRIS silenced cells” value is “not affected by the peptide at any of the concentrations tested”. Besides, the “effect of IRIS peptide on survival of siLuc-transfected cells” value in [1] (siLuc 48 hours) is given as “gradual decrease in the survival of all cell lines”. In addition, the “cleaved / activated caspase 3/7” value in the experiment on caspase 3/7 was “gradual increase in activated caspase 3/7; also recorded: increase cleaved caspase 3/7 in both cell lines”. The effect on survival result in the experiment on HOSE and HOSE/IRIS cells is “decreased survival of HOSE and HOSE/IRIS cells”. Besides, the sensitization to cisplatin result in the experiment with HOSE and HOSE/IRIS cells (then cisplatin) is “sensitized HOSE and HOSE/IRIS cells to low concentrations of cisplatin”. For the same sequence, the “reduction of aggressive (large/non-round) acini phenotype in tumor cells” value in [2] is reported as over 3 fold.
